Data as given in PubChem BioAssay AID256 (DTP/NCI, 2004).
“And” between values parts separate entries of the source, which are not always exact repeats. Equal entries are not always repeated. Toxic doses and inconclusive results are not listed. Rule for the calls: active = survival T/C of 150% or more; inactive = T/C below 125% in these data.

Tested on: CD2F1 mice, L1210 leukemia ip, survival T/C
Test: NCI In Vivo Anticancer Drug Screen. Data for tumor model L1210 Leukemia (intraperitoneal) in CD2F1 (CDF1) mice
Conditions: endpoint: mean survival time, higher = longer survival
Method in brief: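 Tumor-bearing mice (transplanted tumor) were split into treated and vehicle control groups, and the measured endpoint of each treated group was divided by that of its vehicle controls.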

[1] = dose: 75.0 mg/kg/injection, schedule: Q01DX001 (ip), vehicle: saline
[2] = dose: 6.25 mg/kg/injection, schedule: Q01DX009 (ip), vehicle: saline with Tween-80
[3] = dose: 12.5 mg/kg/injection, schedule: Q01DX009 (ip), vehicle: saline with Tween-80
[4] = dose: 25.0 mg/kg/injection, schedule: Q01DX009 (ip), vehicle: saline with Tween-80
[5] = dose: 50.0 mg/kg/injection, schedule: Q01DX009 (ip), vehicle: saline with Tween-80
[6] = dose: 100.0 mg/kg/injection, schedule: Q01DX009 (ip), vehicle: saline with Tween-80
[7] = dose: 100.0 mg/kg/injection, schedule: Q04DX003 (ip), vehicle: saline with Tween-80
[8] = dose: 200.0 mg/kg/injection, schedule: Q04DX003 (ip), vehicle: saline with Tween-80
[9] = dose: 200.0 mg/kg/injection, schedule: Q01DX009 (ip), vehicle: saline with Tween-80

Measured: T/C

[O-]/[N+](=C\Cc1ccccc1)c1ccccc1
inactive: dose: 100.0 mg/kg/injection, schedule: Q04DX002 (ip), vehicle: saline with Tween-80 90 % of control | dose: 200.0 mg/kg/injection, schedule: Q04DX002 (ip), vehicle: saline with Tween-80 87 % of control | dose: 400.0 mg/kg/injection, schedule: Q04DX002 (ip), vehicle: saline with Tween-80 90 % of control

OCC(F)(F)C(F)(F)C(F)(F)F
inactive: dose: 75.0 mg/kg/injection, schedule: Q01DX009 (ip), vehicle: saline 95 % of control | dose: 150.0 mg/kg/injection, schedule: Q01DX009 (ip), vehicle: saline 95 % of control | dose: 300.0 mg/kg/injection, schedule: Q01DX009 (ip), vehicle: saline 103 % of control | dose: 600.0 mg/kg/injection, schedule: Q01DX009 (ip), vehicle: saline 86 % of control

O=C1c2cccc(O)c2C(=O)c2c(O)cccc21
inactive: dose: 100.0 mg/kg/injection, schedule: Q01DX001 (ip), vehicle: saline 100 % of control | dose: 200.0 mg/kg/injection, schedule: Q01DX001 (ip), vehicle: saline 102 % of control | dose: 400.0 mg/kg/injection, schedule: Q01DX001 (ip), vehicle: saline 100 % of control

O=C1CSC(=S)N1/N=C/c1cc(Cl)cc(Cl)c1O
inactive: dose: 75.0 mg/kg/injection, schedule: Q01DX001 (ip), vehicle: other 90 % of control | dose: 150.0 mg/kg/injection, schedule: Q01DX001 (ip), vehicle: other 102 % of control

CC(=O)N(CCCCCCN(N=O)C(C)=O)N=O
inactive: [1] 110 % of control | dose: 150.0 mg/kg/injection, schedule: Q01DX001 (ip), vehicle: saline 122 % of control | dose: 300.0 mg/kg/injection, schedule: Q01DX001 (ip), vehicle: saline 116 % of control

O=C(NC1=C(N2CC2)C(=O)C(NC(=O)OCCO)=C(N2CC2)C1=O)OCCO
inactive: dose: 0.18 mg/kg/injection, schedule: Q01DX009 (ip), vehicle: saline 109 % of control and 112 % of control | dose: 0.39 mg/kg/injection, schedule: Q01DX009 (ip), vehicle: saline 113 % of control and 104 % of control | dose: 0.75 mg/kg/injection, schedule: Q01DX009 (ip), vehicle: saline 117 % of control and 120 % of control

C/C=C/c1cc2c(c(=O)o1)C(=O)[C@@H](O)[C@H](C)O2
inactive: [2] 101 % of control | [3] 105 % of control | [4] 97 % of control | [5] 101 % of control | [6] 113 % of control

N/C(=N\O)c1cn(C2OC(CO)C(O)C2O)c2ncnc(N)c12 (stereo not drawn)
inactive: dose: 8.0 mg/kg/injection, schedule: Q01DX007 (ip), vehicle: saline 111 % of control

O=P(CCC(O)c1ccccc1)(c1ccccc1)c1ccccc1 (stereo not drawn)
inactive: [5] 96 % of control | [6] 92 % of control | [7] 97 % of control | [8] 87 % of control

Cc1nc(-c2ccc(N=Cc3ccc(N(CCOS(C)(=O)=O)CCOS(C)(=O)=O)cc3C)cc2)c(C)s1
inactive: dose: 5.0 mg/kg/injection, schedule: Q01DX001 (ip), vehicle: Klucel (hydroxypropylcellulose) (HPC) 101 % of control | dose: 10.0 mg/kg/injection, schedule: Q01DX001 (ip), vehicle: Klucel (hydroxypropylcellulose) (HPC) 104 % of control | dose: 20.0 mg/kg/injection, schedule: Q01DX001 (ip), vehicle: Klucel (hydroxypropylcellulose) (HPC) 104 % of control | dose: 40.0 mg/kg/injection, schedule: Q01DX001 (ip), vehicle: Klucel (hydroxypropylcellulose) (HPC) 115 % of control

c1ccc2c3c(ccc2c1)CN1CCCCC1C3 (stereo not drawn)
inactive: [5] 102 % of control | [6] 100 % of control | [9] 104 % of control

CNC(=S)N(C1CCCCC1)C1CCCCC1
inactive: [7] 111 % of control | [8] 96 % of control | dose: 400.0 mg/kg/injection, schedule: Q04DX003 (ip), vehicle: saline with Tween-80 94 % of control

Cc1ccc(S(=O)(=O)Nc2c([N+](=O)[O-])cc([N+](=O)[O-])c3ccccc23)cc1
inactive: [2] 104 % of control | dose: 6.25 mg/kg/injection, schedule: Q04DX003 (ip), vehicle: saline with Tween-80 100 % of control | [3] 100 % of control | dose: 12.5 mg/kg/injection, schedule: Q04DX003 (ip), vehicle: saline with Tween-80 96 % of control | [4] 103 % of control | dose: 25.0 mg/kg/injection, schedule: Q04DX003 (ip), vehicle: saline with Tween-80 100 % of control

O=[N+]([O-])c1ccc(N=Nc2ccc3c(c2)-c2ccccc2C3=P(c2ccccc2)(c2ccccc2)c2ccccc2)cc1
inactive: [5] 94 % of control | [6] 91 % of control | [7] 91 % of control | [9] 94 % of control | [8] 91 % of control

CCCCCCCC[n+]1cccc(C(=O)c2ccccc2)c1
inactive: [1] 105 % of control

O=C(NCCCl)Nc1ccc(O)cc1
inactive: dose: 100.0 mg/kg/injection, schedule: Q01DX001 (ip), vehicle: carboxymethylcellulose (CMC) 101 % of control | dose: 200.0 mg/kg/injection, schedule: Q01DX001 (ip), vehicle: carboxymethylcellulose (CMC) 98 % of control | dose: 400.0 mg/kg/injection, schedule: Q01DX001 (ip), vehicle: carboxymethylcellulose (CMC) 104 % of control

C[n+]1c(/C=C\C=C\N2CCCCC2)sc2ccccc21
inactive: dose: 0.06 mg/kg/injection, schedule: Q01DX009 (ip), vehicle: Klucel (hydroxypropylcellulose) (HPC) 104 % of control | dose: 0.12 mg/kg/injection, schedule: Q01DX009 (ip), vehicle: Klucel (hydroxypropylcellulose) (HPC) 104 % of control | dose: 0.25 mg/kg/injection, schedule: Q01DX009 (ip), vehicle: Klucel (hydroxypropylcellulose) (HPC) 107 % of control | dose: 0.31 mg/kg/injection, schedule: Q01DX009 (ip), vehicle: Klucel (hydroxypropylcellulose) (HPC) 113 % of control | dose: 0.5 mg/kg/injection, schedule: Q01DX009 (ip), vehicle: Klucel (hydroxypropylcellulose) (HPC) 111 % of control | dose: 0.63 mg/kg/injection, schedule: Q01DX009 (ip), vehicle: Klucel (hydroxypropylcellulose) (HPC) 97 % of control | dose: 1.0 mg/kg/injection, schedule: Q01DX009 (ip), vehicle: Klucel (hydroxypropylcellulose) (HPC) 107 % of control | dose: 1.25 mg/kg/injection, schedule: Q01DX009 (ip), vehicle: Klucel (hydroxypropylcellulose) (HPC) 100 % of control | dose: 2.0 mg/kg/injection, schedule: Q01DX009 (ip), vehicle: Klucel (hydroxypropylcellulose) (HPC) 118 % of control | dose: 62.0 micrograms/kg/injection, schedule: Q01DX009 (ip), vehicle: Klucel (hydroxypropylcellulose) (HPC) 104 % of control | dose: 125.0 micrograms/kg/injection, schedule: Q01DX009 (ip), vehicle: Klucel (hydroxypropylcellulose) (HPC) 102 % of control | dose: 250.0 micrograms/kg/injection, schedule: Q01DX009 (ip), vehicle: Klucel (hydroxypropylcellulose) (HPC) 101 % of control | dose: 500.0 micrograms/kg/injection, schedule: Q01DX009 (ip), vehicle: Klucel (hydroxypropylcellulose) (HPC) 101 % of control | dose: 1000.0 micrograms/kg/injection, schedule: Q01DX009 (ip), vehicle: Klucel (hydroxypropylcellulose) (HPC) 113 % of control | dose: 2000.0 micrograms/kg/injection, schedule: Q01DX009 (ip), vehicle: Klucel (hydroxypropylcellulose) (HPC) 108 % of control
